Structures can show the parent of a compound that is named as a salt.
SMILES | melting point [°C]
CN1Cc2cc(-c3ccc(-c4cncc(S(=O)(=O)Nc5ccc(F)cc5F)c4)s3)ccc2C1=O [Compound 7, N-(2,4-Difluorophenyl)-5-(5-(2-methyl-1-oxoisoindolin-5-yl)thiophen-2-yl)pyridine-3-sulphonamide] | 221 to 224
CN1Cc2cc(-c3ccc(-c4cncc(NS(=O)(=O)c5ccc(-c6cnco6)cc5)c4)s3)ccc2C1=O [Compound 70, N-(5-(5-(2-Methyl-1-oxoisoindolin-5-yl)thiophen-2-yl)pyridin-3-yl)-4-(oxazol-5-yl)benzenesulfonamides] | 278 to 281
CN1Cc2cc(-c3ccc(-c4cncc(NS(=O)(=O)c5cccc(Br)c5)c4)s3)ccc2C1=O [Compound 33, 3-Bromo-N-(5-(5-(2-methyl-1-oxoisoindolin-5-yl)thiophen-2-yl)pyridin-3-yl)benzenesulfonamide] | 303 to 307
CN1Cc2cc(-c3ccc(-c4cncc(NS(=O)(=O)c5ccc(Br)cc5Br)c4)s3)ccc2C1=O [Compound 35, 2,4-Dibromo-N-(5-(5-(2-methyl-1-oxoisoindolin-5-yl)thiophen-2-yl)pyridin-3-yl)benzenesulfonamides] | 276 to 279
CN1Cc2cc(-c3ccc(-c4cncc(NS(=O)(=O)c5ccccc5F)c4)s3)ccc2C1=O [Compound 22, 2-Fluoro-N-(5-(5-(2-methyl-1-oxoisoindolin-5-yl)thiophen-2-yl)pyridin-3-yl)benzenesulfonamide] | 289 to 292
CN1Cc2cc(-c3ccc(-c4cncc(NS(=O)(=O)c5ccc(S(C)(=O)=O)cc5)c4)s3)ccc2C1=O (as salt: sodium) [Compound 57, Sodium (5-(5-(2-methyl-1-oxoisoindolin-5-yl)thiophen-2-yl)pyridin-3-yl)((4-(methylsulfonyl)phenyl)sulfonyl)amide] | > 300
CN1Cc2cc(-c3ccc(-c4cncc(NS(=O)(=O)c5cc(Br)cc(C(F)(F)F)c5)c4)s3)ccc2C1=O [Compound 65, 3-Bromo-N-(5-(5-(2-methyl-1-oxoisoindolin-5-yl)thiophen-2-yl)pyridin-3-yl)-5-(trifluoromethyl)benzenesulphonamide] | 280 to 283
COC(=O)c1cccc(S(=O)(=O)Nc2cncc(-c3ccc(-c4ccc5c(c4)CN(C)C5=O)s3)c2)c1 [Compound 52, Methyl 3-(N-(5-(5-(2-methyl-1-oxoisoindolin-5-yl)thiophen-2-yl)pyridin-3-yl)sulfamoyl)benzoate] | 250 to 254
CN1Cc2cc(-c3ccc(-c4cncc(NS(=O)(=O)c5ccccc5C#N)c4)s3)ccc2C1=O [Compound 48, 2-Cyano-N-(5-(5-(2-methyl-1-oxoisoindolin-5-yl)thiophen-2-yl)pyridin-3-yl)benzenesulfonamide] | > 310
COc1ncc(-c2ccc(-c3ccc4c(c3)CN(C)C4=O)s2)cc1NS(=O)(=O)c1ccc(F)cc1F [Compound 12, 2,4-Difluoro-N-(2-methoxy-5-(5-(2-methyl-1-oxoisoindolin-5-yl)-thiophen-2-yl)pyridin-3-yl)benzenesulphonamide] | 224 to 227
CN1Cc2cc(-c3ccc(-c4cncc(NS(=O)(=O)c5ccc(Cl)cc5)c4)s3)ccc2C1=O [Compound 29, 4-Chloro-N-(5-(5-(2-methyl-1-oxoisoindolin-5-yl)thiophen-2-yl)pyridin-3-yl)benzenesulfonamide] | 281 to 284
CN1Cc2cc(-c3ccc(-c4cncc(NS(=O)(=O)c5ccccc5OC(F)(F)F)c4)s3)ccc2C1=O [Compound 41, N-(5-(5-(2-Methyl-1-oxoisoindolin-5-yl)thiophen-2-yl)pyridin-3-yl)-2-(trifluoromethoxy)benzenesulfonamide] | 251 to 254
Cc1ccc(NS(=O)(=O)c2ccccn2)cc1-c1ccc(-c2ccc3c(c2)CN(C)C3=O)s1 [Compound 15, N-(4-Methyl-3-(5-(2-methyl-1-oxoisoindolin-5-yl)thiophen-2-yl)phenyl)pyridine-2-sulfonamide] | 274 to 277
CN1Cc2cc(-c3ccc(-c4cncc(NS(=O)(=O)c5ccc(F)cc5)c4)s3)ccc2C1=O [Compound 24, 4-Fluoro-N-(5-(5-(2-methyl-1-oxoisoindolin-5-yl)thiophen-2-yl)pyridin-3-yl)benzenesulfonamide] | 272 to 274
CN1Cc2cc(-c3ccc(-c4cncc(NS(=O)(=O)c5ccc(I)cc5)c4)s3)ccc2C1=O [Compound 36, 4-Iodo-N-(5-(5-(2-methyl-1-oxoisoindolin-5-yl)thiophen-2-yl)pyridin-3-yl)benzenesulfonamides] | 295 to 298
CN1Cc2cc(-c3ccc(-c4cncc(NS(=O)(=O)c5ccc(OC(F)(F)F)cc5)c4)s3)ccc2C1=O [Compound 43, N-(5-(5-(2-Methyl-1-oxoisoindolin-5-yl)thiophen-2-yl)pyridin-3-yl)-4-(trifluoromethoxy)benzenesulfonamide] | 293 to 296
Cc1cc(F)ccc1S(=O)(=O)Nc1cncc(-c2ccc(-c3ccc4c(c3)CN(C)C4=O)s2)c1 [Compound 61, 4-Fluoro-2-methyl-N-(5-(5-(2-methyl-1-oxoisoindolin-5-yl)thiophen-2-yl)pyridin-3-yl) benzenesulphonamide] | 280 to 283
COC(=O)c1ccc(S(=O)(=O)Nc2cncc(-c3ccc(-c4ccc5c(c4)CN(C)C5=O)s3)c2)cc1 [Compound 53, Methyl 4-(N-(5-(5-(2-methyl-1-oxoisoindolin-5-yl)thiophen-2-yl)pyridin-3-yl)sulfamoyl)benzoate] | 269 to 272
COc1ccc(-c2ccc(-c3ccc4c(c3)CN(C)C4=O)s2)cc1S(=O)(=O)Nc1ccccn1 (as salt: sodium) [Compound 19, Sodium ((2-methoxy-5-(5-(2-methyl-1-oxoisoindolin-5-yl)thiophen-2-yl)phenyl)sulfonyl)(pyridin-2-yl)amide] | 322 to 325
CN1Cc2cc(-c3ccc(-c4cncc(NS(=O)(=O)c5ccc(Cl)cc5Cl)c4)s3)ccc2C1=O [Compound 31, 2,4-Dichloro-N-(5-(5-(2-methyl-1-oxoisoindolin-5-yl)thiophen-2-yl)pyridin-3-yl)benzenesulfonamide] | 282 to 285
CN1Cc2cc(-c3ccc(-c4cncc(NS(=O)(=O)c5ccccn5)c4)s3)ccc2C1=O [Compound 66, N-(5-(5-(2-Methyl-1-oxoisoindolin-5-yl)thiophen-2-yl)pyridin-3-yl)pyridine-2-sulfonamide] | 272 to 275
CN1Cc2cc(-c3ccc(-c4cncc(NS(=O)(=O)c5ccccc5Cl)c4)s3)ccc2C1=O [Compound 27, 2-Chloro-N-(5-(5-(2-methyl-1-oxoisoindolin-5-yl)thiophen-2-yl)pyridin-3-yl)benzenesulfonamide] | 299 to 303
COc1ccc(S(=O)(=O)Nc2cncc(-c3ccc(-c4ccc5c(c4)CN(C)C5=O)s3)c2)cc1OC (as salt: sodium) [Compound 40, 3,4-Dimethoxy-N-(5-(5-(2-methyl-1-oxoisoindolin-5-yl)thiophen-2-yl)pyridin-3-yl)benzenesulfonamide, sodium salt] | 240 to 244
CN1Cc2cc(-c3ccc(-c4cncc(NS(=O)(=O)c5ccc(-c6ccno6)s5)c4)s3)ccc2C1=O [Compound 71, 5-(Isoxazol-5-yl)-N-(5-(5-(2-methyl-1-oxoisoindolin-5-yl)thiophen-2-yl)pyridin-3-yl)thiophene-2-sulfonamide] | 245 to 249
CN1Cc2cc(-c3ccc(-c4cncc(NS(=O)(=O)c5cccc(F)c5)c4)s3)ccc2C1=O [Compound 23, 3-Fluoro-N-(5-(5-(2-methyl-1-oxoisoindolin-5-yl)thiophen-2-yl)pyridin-3-yl)benzenesulfonamide] | 292 to 294
CN1Cc2cc(-c3ccc(-c4cncc(N(C)S(=O)(=O)c5ccc(F)cc5F)c4)s3)ccc2C1=O [Compound 6, 2,4-Difluoro-N-methyl-N-(5-(5-(2-methyl-1-oxoisoindolin-5-yl)thiophen-2-yl)pyridin-3-yl)-benzenesulphonamide] | 200 to 202
CN1Cc2cc(-c3ccc(-c4cncc(NS(=O)(=O)c5ccccc5S(C)(=O)=O)c4)s3)ccc2C1=O [Compound 56, N-(5-(5-(2-Methyl-1-oxoisoindolin-5-yl)thiophen-2-yl)pyridin-3-yl)-2-(methylsulfonyl)benzenesulfonamide] | 269 to 272
CN1Cc2cc(-c3ccc(-c4ccnc(NS(=O)(=O)c5ccc(F)cc5F)c4)s3)ccc2C1=O [Compound 5, 2,4-Difluoro-N-(4-(5-(2-methyl-1-oxoisoindolin-5-yl)thiophen-2-yl)pyridin-2-yl)benzenesulfonamide] | 235 to 239

— article PMC5500991, “Substituted arylsulphonamides as inhibitors of perforin-mediated lysis” (European Journal of Medicinal Chemistry, 2017)
